Source: patent US12252423B2, “Biodegradation of fluorochemicals” (The Trustees of Princeton University, priority 2018, dated 2025)
Entries after “also recorded” stand apart in the source; their conditions may differ.

Tested on: pure and enrichment cultures
Experiment: Toxicity experiments: effect of PFAS on biomass over a 14-day incubation
Format: cell-based, Acidimicrobiaceae sp. A6 / Terrimonas sp. A8
Conditions: for biomass growth: 1 ppm, pure culture incubations, 14 days; for toxicity / effects on the overall bacterial numbers: 1 ppb, 10 ppb, 100 ppb and 1 ppm, 14 days incubation, pure and enrichment cultures
Method: Toxicity experiments were conducted for both pure and enrichment cultures with selected PFAS Compounds. The concentrations to test were 1 ppb, 10 ppb, 100 ppb and 1 ppm. During 14 days incubation, no toxicity of Heptafluorobutyric acid (HFBA), Perfluorooctanoic acid (PFOA) was evidenced by cultures with these concentrations.
All Incubations were conducted in 20-ml serum vials with a pure strain A6 (Acidimicrobiaceae sp.)/A8 (Terrimonas sp.) or an enrichment culture, which contained 40.1-48.5% of Acidimicrobiaceae sp. A6, and in the anoxic inorganic Fe(III)-NH4^+ enrichment medium. The composition of the inorganic Fe(III)-NH4^+ enrichment medium (pH 4.5-5.0) consisted of 504 mg/L 2-line ferrihydrite [Fe2O3·0.5H2O], 177 mg/l NH4Cl, 77.9 mg/L (NH4)2SO4, 19.8 mg/L NaHCO3, 71.0 mg/L KHCO3, 9.00 mg/L KH2PO4, 100 mg/L MgSO4·7H2O, and 60.0 mg/L CaCl2·2H2O, in addition to 1 ml/L of a trace element solution, and 1 ml/L of a vitamin solution (ATCC® MD-VS™). An electron shuttling compound, 9,10-Anthraquinone-2,7-disulphonic acid (AQDS), was added to the pure strain A6 with a final concentration as 0.05 mg/L. To achieve strictly anoxic conditions, the headspace of each incubation vial was vacuumed until no bubble formation was observed and then flushed with a N2/CO2 (80:20) gas mixture, which was repeated 3 times. Then, for the PFAS degradation experiment, an equal volume of either HFBA, PFOA and PFBS was added to each group of vials, to yield final concentrations to 100 ppb. In the control group, autoclave control, without PFASs and without addition of NH4^+ were prepared. All These vials were placed on a shaker (100 rpm) in an anaerobic glove box for 14-day incubations at ambient temperature. Duplicate samples were collected destructively every week for Fe(II), NH4^+, and HFBA/PFOA/PFBS analyses.
Toxicity experiments, in terms of how each of these PFAS affects the biomass over a 14-day incubation, were conducted for both pure and enrichment cultures. The concentrations tested were 1 ppb, 10 ppb, 100 ppb and 1 ppm. During 14 days of incubation, no effects by Heptafluorobutyric acid (HFBA) and Perfluorooctanoic acid (PFOA) on the overall bacterial numbers were detected for these concentrations. However, the biomass growth was inhibited when the concentration of 2,2,2-Trifluoroethyl Nonafluorobutanesulfonate was 1 ppm in the incubation with the pure culture.

SMILES | biomass growth | biomass growth (listed as 2,2,2-Trifluoroethyl Nonafluorobutanesulfonate) | toxicity / effects on the overall bacterial numbers
O=S(=O)(OCC(F)(F)F)C(F)(F)C(F)(F)C(F)(F)C(F)(F)F [PFBS, 2,2,2-Trifluoroethyl Nonafluorobutanesulfonate] | slightly inhibited | inhibited | 
O=C(O)C(F)(F)C(F)(F)C(F)(F)C(F)(F)C(F)(F)C(F)(F)C(F)(F)F [PFOA, Perfluorooctanoic acid] |  |  | no toxicity; also recorded: no effects
O=C(O)C(F)(F)C(F)(F)C(F)(F)F [HFBA, Heptafluorobutyric acid] |  |  | no toxicity; also recorded: no effects
